Test results from patent publication US11771765B2, “Light augmented treatment method” (The Procter & Gamble Company, priority 2019, dated 2023).

What was measured:
M. furfur cells = assay: Non-chelator antifungals with or without light, M. furfur growth (Table 11); assay type: cell-based, Malassezia furfur; details: for effect of adding light on efficacy: non-chelator antifungals, OD values of Table 11
Method: (§1) M. furfur cells are exposed to other antifungals that are not considered chelators (i.e. selenium sulfide (SeSx), Sulfur, Climbazole, and Terbinafine). After treatment, cells are then exposed to light, or not exposed to light. Both OD are measured to measure growth and PPIX levels are measured.

protoporphyrin IX (PPIX) [1] = assay: Protoporphyrin IX levels in treated M. furfur cells by HPLC; assay type: cell-based; details: for PPIX levels upon treatment: non-chelator antifungals, Table 11
Source text: PPIX absorb light in the 400 nm range, and when light is absorbed, PPIX transitions to an excited triplet state that can react with triplet oxygen to produce singlet oxygen or the excited porphyrin can generate ROS through single electron processes. These reactive species result in a loss of cell viability.
as §1

M. furfur CBS 7982 = assay: Fractional Inhibitor Concentration (FIC): antimicrobial plus 409 nm light on M. furfur growth; assay type: cell-based, Malassezia furfur; details: for growth, OD 600 nm: 27 h growth
Method: Fractional Inhibitor Concentration (FIC) is a conventional methodology for evaluating the interaction of two antimicrobial chemicals. […] In an embodiment of the present invention, FIC is used to determine combinatorial effects of one chemical and exposure to light on Malassezia growth and/or viability in an in vitro system.
• 1. M. furfur CBS 7982 cells are exposed to a varying concentrations of an antimicrobial active (e.g. ZPT, Piroctone Olamine) for a specified amount of time (e.g. 2 min to 3 hours). • 2. After exposure, the antimicrobial is washed away by centrifugation of the cells and a series of washes • 3. Cells are then exposed to light at a wavelength of 409 nm for varying lengths of time • 4. Cells are then allowed to grow up overnight (e.g. 17 h) to determine the impact of the treatment on viability and growth of the organism by measuring OD600 II. Data Analysis: • 1. Inhibition of growth is determined to be where the OD value obtained is <=50% of the untreated control • 2. The lowest concentration value of the antimicrobial agent which inhibits growth is determined • 3. Likewise, the shortest light exposure time is determined that gives growth inhibition • 4. Finally, the combination of the lowest concentration of the antimicrobial and the shortest light exposure time that provides growth inhibition is determined • 5. The FIC value is determined using the calculation below:
[formula] • 6. The combinatorial effect of the antimicrobial and light is classified according to the chart below: […]
(§2) M. furfur is incubated for one hour with varying concentrations of Piroctone Olamine. Cell pellets are collected by centrifugation so that most of the anti-fungal material has been removed. The cell pellet is suspended in PBS and 500 uL samples are distributed to four 12 well plates and treated with light (409 nm) for 1, 10 or 60 minutes or stored in the dark. Samples are then diluted into mDixon, and incubated for 16 h with subsequent growth measured by OD 600 nm.
as §2, with “Hinokitiol.” for “Piroctone Olamine.”, “27” for “16”, “nm. […]” for “nm.”

protoporphyrin IX (PPIX) [2] = assay: Protoporphyrin IX levels in treated M. furfur cells by HPLC; assay type: cell-based

CC(C)(C)C(=O)C(Oc1ccc(Cl)cc1)n1ccnc1 (stereo not shown) [Climbazole]
OD600 (M. furfur cells; 1 ppm, Dark (second part)): 11.9 | OD600 (M. furfur cells; 1 ppm, Light (second part)): 10.2 | effect of adding light on efficacy (M. furfur cells): does not increase their efficacy | PPIX (protoporphyrin IX (PPIX) [1]; 1 ppm (Table 11, second part)): 4.5 ng | PPIX levels upon treatment (protoporphyrin IX (PPIX) [1]): PPIX levels do not change

CC(C)c1cccc(=O)c(O)c1 [Hinokitiol]
shortest light exposure time when applied in combination to give growth inhibition (M. furfur CBS 7982; 409 nm light, with the lowest inhibiting concentration): 1 min | growth, OD 600 nm (M. furfur CBS 7982; Hinokitiol 3 ppm 1 h, 409 nm light 0 min): 8.3 | growth, OD 600 nm (M. furfur CBS 7982; Hinokitiol 3 ppm 1 h, 409 nm light 1 min): 7.9 | growth, OD 600 nm (M. furfur CBS 7982; Hinokitiol 3 ppm 1 h, 409 nm light 10 min): 4.6 | growth, OD 600 nm (M. furfur CBS 7982; Hinokitiol 3 ppm 1 h, 409 nm light 60 min): 4.5 | growth, OD 600 nm (M. furfur CBS 7982; Hinokitiol 6 ppm 1 h, 409 nm light 0 min): 8.5 | growth, OD 600 nm (M. furfur CBS 7982; Hinokitiol 6 ppm 1 h, 409 nm light 1 min): 1.8 | growth, OD 600 nm (M. furfur CBS 7982; Hinokitiol 6 ppm 1 h, 409 nm light 10 min): 0.3 | growth, OD 600 nm (M. furfur CBS 7982; Hinokitiol 6 ppm 1 h, 409 nm light 60 min): 0.4 | growth, OD 600 nm (M. furfur CBS 7982; Hinokitiol 12 ppm 1 h, 409 nm light 0 min): 8.6 | growth, OD 600 nm (M. furfur CBS 7982; Hinokitiol 12 ppm 1 h, 409 nm light 1 min): 2.3 | growth, OD 600 nm (M. furfur CBS 7982; Hinokitiol 12 ppm 1 h, 409 nm light 10 min): 0.2 | growth, OD 600 nm (M. furfur CBS 7982; Hinokitiol 12 ppm 1 h, 409 nm light 60 min): 0.3 | growth, OD 600 nm (M. furfur CBS 7982; Hinokitiol 24 ppm 1 h, 409 nm light 0 min): 6.1 | growth, OD 600 nm (M. furfur CBS 7982; Hinokitiol 24 ppm 1 h, 409 nm light 1 min): 0.6 | growth, OD 600 nm (M. furfur CBS 7982; Hinokitiol 24 ppm 1 h, 409 nm light 10 min): 0.2 | growth, OD 600 nm (M. furfur CBS 7982; Hinokitiol 24 ppm 1 h, 409 nm light 60 min): 0.2 | growth, OD 600 nm (M. furfur CBS 7982; Hinokitiol 48 ppm 1 h, 409 nm light 0 min): 5.7 | growth, OD 600 nm (M. furfur CBS 7982; Hinokitiol 48 ppm 1 h, 409 nm light 1 min): 0.2 | growth, OD 600 nm (M. furfur CBS 7982; Hinokitiol 48 ppm 1 h, 409 nm light 10 min): 0.1 | growth, OD 600 nm (M. furfur CBS 7982; Hinokitiol 48 ppm 1 h, 409 nm light 60 min): 0.1 | growth, OD 600 nm (M. furfur CBS 7982; Hinokitiol 96 ppm 1 h, 409 nm light 0 min): 5.9 | growth, OD 600 nm (M. furfur CBS 7982; Hinokitiol 96 ppm 1 h, 409 nm light 1 min): 0.3 | growth, OD 600 nm (M. furfur CBS 7982; Hinokitiol 96 ppm 1 h, 409 nm light 10 min): 0.0 | growth, OD 600 nm (M. furfur CBS 7982; Hinokitiol 96 ppm 1 h, 409 nm light 60 min): 0.0 | lowest concentration to give growth inhibition (M. furfur CBS 7982; antimicrobial alone, no light, inhibition = OD <=50% of untreated control): > 96 ppm | FIC value (M. furfur CBS 7982; antimicrobial plus 409 nm light): 0.08 | Combinatorial Effect (M. furfur CBS 7982; antimicrobial plus 409 nm light, classified by FIC value): synergistic | lowest concentration when applied in combination with light to give growth inhibition (M. furfur CBS 7982; with 409 nm light, inhibition = OD <=50% of untreated control): 6 ppm

S=[Se]=S [SeSx, selenium sulfide]
OD600 (M. furfur cells; 0.4 ppm, Dark): 3.31 | OD600 (M. furfur cells; 0.4 ppm, Light): 2.27 | OD600 (M. furfur cells; 0.8 ppm, Dark): 1.51 | OD600 (M. furfur cells; 0.8 ppm, Light): 1.44 | effect of adding light on efficacy (M. furfur cells): does not increase their efficacy | PPIX (protoporphyrin IX (PPIX) [2]; 0.4 ppm (Table 11)): 2.6 ng | PPIX (protoporphyrin IX (PPIX) [2]; 0.8 ppm (Table 11)): 1.2 ng | PPIX levels upon treatment (protoporphyrin IX (PPIX) [1]): PPIX levels do not change

S1SSSSSSS1 [Sulfur]
OD600 (M. furfur cells; 8 ppm, Dark): 4.52 | OD600 (M. furfur cells; 8 ppm, Light): 3.62 | effect of adding light on efficacy (M. furfur cells): does not increase their efficacy | PPIX (protoporphyrin IX (PPIX) [1]; 8 ppm (Table 11)): 1.6 ng | PPIX levels upon treatment (protoporphyrin IX (PPIX) [1]): PPIX levels do not change

CN(C/C=C/C#CC(C)(C)C)Cc1cccc2ccccc12 [Terbinafine]
OD600 (M. furfur cells; 0.5 ppm, Dark (second part)): 12.5 | OD600 (M. furfur cells; 0.5 ppm, Light (second part)): 10.6 | effect of adding light on efficacy (M. furfur cells): does not increase their efficacy | PPIX (protoporphyrin IX (PPIX) [1]; 0.5 ppm (Table 11, second part)): 6.7 ng | PPIX levels upon treatment (protoporphyrin IX (PPIX) [1]): PPIX levels do not change
